Earlier results in paper PMC9729727, “The effect of food on the pharmacokinetics of WXFL10203614, a potential selective JAK1 inhibitor, in healthy Chinese subjects” (Frontiers in Pharmacology, 2022).
Where two headings read alike, the source gives them in different places.

Conditions: for Effect of food on AUC / Effect of food on Cmax: ref Shi et al., 2011, Mohamed et al., Anderson et al.; for Effect of the fed state on Cmax: ref Lamba et al., 2016, Shibata et al., 2021
[1] = 3 mg immediate-release capsules, high-fat meal vs fasted, ref Mohamed et al., 2017

Row | Structure (SMILES) | Effect of food on AUC (2017, 2019) | Effect of food on Cmax (2017, 2019) | Effect of the fed state on Cmax | further results
1 | O=C(Nc1nc2cccc(-c3ccc(CN4CCS(=O)(=O)CC4)cc3)n2n1)C1CC1 [filgotinib] | little effect | partly reduced | – | Effect of meals on systemic exposure (high- and low-fat meals, ref Anderson et al., 2019): little effect; Decrease of Cmax by meal (high-fat meal, ref Anderson et al., 2019): 20%; Decrease of Cmax by meal (low-fat meal, ref Anderson et al., 2019): 11%
2 | N#CC[C@H](C1CCCC1)n1cc(-c2ncnc3[nH]ccc23)cn1 [INCB018424] | little effect | partly reduced | – | –

Continued, in another order:

Row | Effect of food on AUC (2017, 2019) | Effect of food on Cmax (2017, 2019) | Effect of the fed state on Cmax | Structure (SMILES) | further results
3 | little effect | partly reduced | – | CC[C@@H]1CN(C(=O)NCC(F)(F)F)C[C@@H]1c1cnc2cnc3[nH]ccc3n12 [upadacitinib] | Decrease of Cmax after a high-fat meal [1]: 23%; Effect of a high-fat meal on AUC [1]: not impacted
4 | – | – | elevated | C[C@@H]1CCN(C(=O)CC#N)C[C@@H]1N(C)c1ncnc2[nH]ccc12 [tofacitinib] | –
5 | – | – | elevated | NC(=O)c1cnc2[nH]ccc2c1N[C@@H]1[C@@H]2CC3C[C@H]1C[C@@](O)(C3)C2 [peficitinib] | –
